Measurements as given in the NIST ThermoML archive (doi:10.1021/je049907t).
± gives the expanded uncertainty stated by the source.

Legend:
[1] = for Normal melting temperature: Crystal 1, visual observation
[2] = Molar enthalpy of transition or fusion; conditions: Crystal

Cc1ncc[nH]1 [2-methylimidazole]
Normal melting temperature [1]: 146 ± 0.5 °C

Cc1nc2ccccc2[nH]1 [2-methylbenzimidazole]
Normal melting temperature [1]: 178.28 ± 0.5 °C

c1ccc2[nH]cnc2c1 [benzimidazole]
Normal melting temperature [1]: 172.36 ± 0.5 °C

c1ccc(-c2nc[nH]c2-c2ccccc2)cc1 [4,5-diphenylimidazole]
Molar enthalpy of transition or fusion [2]: 8.17 ± 0.454 kcal/mol
Triple point temperature ([1]; Crystal): 504.84 ± 1 K
